Assay results published in patent publication US20170087188A1, “WNT INDUCED MOTILITY AND ENHANCED ENGRAFTMENT OF CELLS” (OTTAWA HOSPITAL RESEARCH INSTITUTE, priority 2014, published 2017).
“Also recorded” adds a separate entry of the source.

System: mouse primary myoblasts
Assay: Scratch migration assay, mouse primary myoblasts
Format: cell-based
Conditions: primary myoblasts; MDC at 50 μm
Procedure: Cellular polarization is indicative of increased motility (de Forges et al., 2012). Scratch assays were used to test whether Wnt7a and Fzd7 polarization affect cell motility. To exclude effects on the localization of cells arising from altered rates of proliferation, cells were treated with Mitomycin-C.
Fzd7 deficient cells migrated 59% less compared to heterozygous myoblasts and expression of Fzd7-Flag in Fzd7 knockout myoblasts restored migration to normal levels (FIG. 2D). […] To investigate whether the stimulation of myoblast migration is dose dependent, different concentrations of Wnt7a and Wnt3a were tested for their effect on migration.
Following plasmid transfection or application of Wnts (R&D Systems), the cells were treated with Mitomycin-C for 2 h (50 μg/mL). Subsequently, the monolayer of cells was scraped in a straight line. The plates were then extensively washed with culture medium and incubated for 24 h before analysis. Analysis was performed using DAPI staining after matching the reference points and enumeration of DAPI-stained nuclei in the scar was performed. Unless otherwise indicated, Wnt7a and Wnt3a were used at a concentration of 100 ng/mL in scratch assays. Monodansylcadaverine (MDC, 30432, Sigma) was used in scratch assays at a concentration of 50 μm.

With `CN(C)c1cccc2c(S(=O)(=O)NCCCCCN)cccc12` [monodansylcadaverine, reference compound] the “effect on Wnt7a mediated migration in scratch assays” value was “prevents Wnt7a induced migration; also recorded: prevented Wnt7a mediated migration”.
